# US8158623B2, “Heptacyclic compounds and the pharmaceutical uses thereof for preventing and treating diabetes and metabolic syndrome” (Shanghai Institute of Materia Medica Chinese Academy of …, priority 2007, dated 2012)
# Several values for one entry are separate records, joined by “and”; a condition that tells them apart may be missing. Equal entries are not always repeated.
# Legend:
# ob/ob mice = assay: Hypoglycemic effect of compound F7, fasting blood glucose, 3 weeks; assay type: in vivo; details: oral 50 mg/kg once daily
# Protocol: Genetic spontaneous diabetes ob/ob mice were purchased from Jackson (USA), and maintained in a SPF facility (temperature: 22-24° C., humidity: 45-80%, illumination: 150-300 Lx, 12/12-hour light/dark cycle). Fasting blood glucose was determined for 3 days continuously when the mice were 7 weeks old. The mice were grouped into the treatment group and the control group (8 animals per group) according to the results determined. The two groups were administered orally with compound F7 (50 mg/kg) and a solution of 0.1% Tween 80 respectively, once daily for 3 weeks. Fasting Blood Glucose levels of mice were measured regularly.
# [1] = test system: Acetyl CoA Carboxylase (ACC); assay: Phosphorylation of ACC in HepG2 cell (Western blot); assay type: cell-based, Human; details: HepG2, 50 uM, 5 minutes, P<0.01 or P<0.05
# Summary of the method: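 HepG2 cells were serum-starved 6 h in MEM with 0.5% BSA, then treated with compound at 50 uM final (0.25% DMSO) for 5 min, with DMSO as control. Lysates (15 μg/lane) were immunoblotted for phospho-AMPK and phospho-ACC with ECL detection. Band grey levels, normalized to an internal standard, are expressed relative to the normal group set as 1.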
# 3T3-L1 adipocytes = assay: Glucose uptake in 3T3-L1 adipocytes (3H-labelled 2-deoxyglucose); assay type: cell-based
# Summary of the method: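 Differentiated 3T3-L1 adipocytes treated with compound at 10 μM for 2 h, with or without insulin. Baseline and insulin-stimulated uptake measured as intracellular 3H-labelled 2-deoxyglucose; increase calculated relative to 0.1% DMSO control.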
compound,measurement,setting,value
"COc1cc(C(=O)O)c2c(c1C)OC(=O)c1c(C)cc(O)c(C=O)c1O2 [Compound F7, 4-Formyl-3-hydroxy-8-methoxy-1,9-dimethyl-11-oxo-11H-dibenzo[b,e][1,4]dioxepine-6-carboxylic acid]",Fasting Blood Glucose,ob/ob mice; 0 day,14.0 ± 1.8 mM
same,Fasting Blood Glucose,ob/ob mice; 4 day,11.3 ± 2.5 mM
same,Fasting Blood Glucose,ob/ob mice; 8 day,11.1 ± 2.0 mM
same,Fasting Blood Glucose,ob/ob mice; 11 day,8.8 ± 1.5 mM
same,Fasting Blood Glucose,ob/ob mice; 15 day,8.5 ± 2.5 mM
same,Fasting Blood Glucose,"ob/ob mice; 21 day, 50 mg/kg",7.4 mM and 7.4 ± 1.3 mM
same,Reduction of fasting blood glucose,ob/ob mice; day 15 after administration,42%
same,Level of phosphorylation for ACC protein versus DMSO control,[1],improved significantly
same,"Glucose uptake, Mean, Compound + Insulin Group (Control Group = 1.000)","3T3-L1 adipocytes; 10 μM, 2 h incubation, with insulin, relative to control without insulin",3.788
same,fold induction at 10 µM,"3T3-L1 adipocytes; Mus musculus, 3T3-L1, 2 h incubation, baseline (without insulin), relative to control, read-out: Glucose uptake, Mean, Compound Group (Control Group = 1.000)",1.19
